Data: article PMC12669630, “The twist-and-squeeze activation of CARF-fused adenosine deaminase by cyclic oligoadenylates” (The EMBO Journal, 2025)
Like-named read-outs stand apart in the source and are kept apart here.

Assays:
TaqCad1 [1] = molecular target: T1, TaqCad1 (Thermoanaerobaculum aquaticum, UniProt A0A062XY19); test: microscale thermophoresis (RED-tris-NTA labelled protein); type: binding
T1 construct: gene EG19_07865; full length 1-625, C-terminal His6 tag kept, E. coli NiCo21(DE3); homohexamer (trimer of dimers); N-terminal CARF, C-terminal ADA domain
T1 sequence (A0A062XY19 entry or part of it): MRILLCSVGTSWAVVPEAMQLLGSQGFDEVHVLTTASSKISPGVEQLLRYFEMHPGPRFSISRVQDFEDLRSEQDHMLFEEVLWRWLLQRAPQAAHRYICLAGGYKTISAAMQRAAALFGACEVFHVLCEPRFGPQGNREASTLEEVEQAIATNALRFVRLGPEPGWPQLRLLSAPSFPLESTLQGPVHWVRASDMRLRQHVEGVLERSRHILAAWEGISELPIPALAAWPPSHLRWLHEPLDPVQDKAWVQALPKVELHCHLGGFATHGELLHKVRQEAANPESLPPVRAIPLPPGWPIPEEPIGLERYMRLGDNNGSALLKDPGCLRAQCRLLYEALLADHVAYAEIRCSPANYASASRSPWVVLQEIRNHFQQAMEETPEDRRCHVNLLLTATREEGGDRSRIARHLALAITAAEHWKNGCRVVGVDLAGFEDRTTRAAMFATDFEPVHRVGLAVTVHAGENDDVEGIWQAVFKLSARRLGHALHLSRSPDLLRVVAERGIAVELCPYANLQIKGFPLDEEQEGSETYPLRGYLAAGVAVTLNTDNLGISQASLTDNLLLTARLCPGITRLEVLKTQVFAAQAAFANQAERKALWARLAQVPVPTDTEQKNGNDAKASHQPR

[2] = molecular target: TaqCad1 R408D/A411E variant (Thermoanaerobaculum aquaticum); test: SEC; gel filtration elution profiles of wild type and R408D/A411E compared; column and buffer of this run not stated
TaqCad1 [3] = molecular target: T2, TaqCad1 (Thermoanaerobaculum aquaticum, UniProt A0A062XY19, G264D/N549D); test: HPLC ATP deamination assay; type: biochemical; settings: no conversion; cA4 activator, Mg2+, pH 7.5, 55 °C
T2 construct: gene EG19_07865; full length 1-625, C-terminal His6 tag kept, E. coli NiCo21(DE3); homohexamer (trimer of dimers); N-terminal CARF, C-terminal ADA domain
T2 sequence (A0A062XY19 entry or part of it G264D/N549D): as the sequence (A0A062XY19 entry or part of it) above, with G264D, N549D counted along it

TaqCad1 [4] = molecular target: T3, TaqCad1 (Thermoanaerobaculum aquaticum, UniProt A0A062XY19, N549D); test: HPLC ATP deamination assay; type: biochemical; settings: no conversion; cA4 activator, Mg2+, pH 7.5, 55 °C
T3 construct: gene EG19_07865; full length 1-625, C-terminal His6 tag kept, E. coli NiCo21(DE3); homohexamer (trimer of dimers); N-terminal CARF, C-terminal ADA domain
T3 sequence (A0A062XY19 entry or part of it N549D): as the sequence (A0A062XY19 entry or part of it) above, with N549D counted along it

Compound: Nc1ncnc2c1ncn2[C@@H]1O[C@@H]2COP(=O)(O)O[C@H]3[C@@H](O)[C@H](n4cnc5c(N)ncnc54)O[C@@H]3COP(=O)(O)O[C@H]3[C@@H](O)[C@H](n4cnc5c(N)ncnc54)O[C@@H]3COP(=O)(O)O[C@H]3[C@@H](O)[C@H](n4cnc5c(N)ncnc54)O[C@@H]3COP(=O)(O)O[C@H]3[C@@H](O)[C@H](n4cnc5c(N)ncnc54)O[C@@H]3COP(=O)(O)O[C@H]3[C@@H](O)[C@H](n4cnc5c(N)ncnc54)O[C@@H]3COP(=O)(O)O[C@H]2[C@H]1O [cA6]
- Kd (TaqCad1 [1]; read-out: apparent dissociation constant): ~1400 nM

Compound: TaqCad1 R408D/A411E variant (enzyme)
- stoichiometry N [2]: 2

Compound: Nc1ncnc2c1ncn2[C@@H]1O[C@H](COP(=O)(O)OP(=O)(O)OP(=O)(O)O)[C@@H](O)[C@H]1O [ATP]
- HPLC ATP deamination assay (TaqCad1 [3]): the N549D or the N549D/G264D variant of TaqCad1 did not react to ATP
- HPLC ATP deamination assay (TaqCad1 [4]): the N549D or the N549D/G264D variant of TaqCad1 did not react to ATP

Compound: Nc1ncnc2c1ncn2[C@@H]1O[C@@H]2COP(=O)(O)O[C@H]3[C@@H](O)[C@H](n4cnc5c(N)ncnc54)O[C@@H]3COP(=O)(O)O[C@H]3[C@@H](O)[C@H](n4cnc5c(N)ncnc54)O[C@@H]3COP(=O)(O)O[C@H]3[C@@H](O)[C@H](n4cnc5c(N)ncnc54)O[C@@H]3COP(=O)(O)O[C@H]2[C@H]1O [cA4]
- Kd (TaqCad1 [1]; read-out: apparent Kd): 13 ± 7 nM
